Assay: xn = mol fraction of the nth substance listed

COC(C)=O + CCCCCCCCO
viscosity [mPa·s], 101 kPa
Details	x2 = 0.053	x2 = 0.1119	x2 = 0.1776	x2 = 0.2515	x2 = 0.3351	x2 = 0.4305	x2 = 0.5404	x2 = 0.6684	x2 = 0.8194
298.15 K	0.436	0.505	0.601	0.736	0.932	1.232	1.722	2.573	4.177
303.15 K	0.414	0.478	0.564	0.685	0.86	1.126	1.554	2.288	3.646
308.15 K	0.395	0.454	0.532	0.64	0.795	1.029	1.402	2.03	3.174
313.15 K	0.374	0.429	0.5	0.596	0.734	0.941	1.267	1.808	2.773

COCCOC + CCCCCCCCO
298.15 K, 101 kPa
Details	viscosity [mPa·s]
x1 = 0.1384	4.222
x1 = 0.2654	2.824
x1 = 0.3825	1.922
x1 = 0.4907	1.402
x1 = 0.591	1.089
x1 = 0.6843	0.8523
x1 = 0.7713	0.6745
x1 = 0.8525	0.5661
x1 = 0.9286	0.4789

CCC(C)=O + CCCCCCCO
viscosity [mPa·s], 100 kPa
Details	x1 = 0.0829	x1 = 0.1614	x1 = 0.2389	x1 = 0.3509	x1 = 0.4404	x1 = 0.5592	x1 = 0.6488	x1 = 0.7389	x1 = 0.8502	x1 = 0.9396
293.15 K	5.23	3.85	3.02	2.1	1.64	1.16	0.92	0.73	0.56	0.47
303.15 K	3.72	2.97	2.31	1.69	1.31	0.9	0.73	0.6	0.45	0.39
313.15 K	2.85	2.28	1.82	1.38	1.11	0.82	0.68	0.56	0.44	0.38
323.15 K	2.21	1.82	1.48	1.15	0.93	0.7	0.58	0.5	0.39	0.34

— the CheMixHub viscosity set
